Reference: US8067454B2, “Thio-substituted Anthra [1, 2-d] imidazole- 6, 11-dione derivatives, preparation method and application thereof” (National Defense Medical Center, priority 2010, dated 2011)

What was measured:
GBM8901 = assay: MTT assay, GBM8901 tumor cell; details: for Cell survival rate (%) GBM8901: concentration 10 μM, tumor cell
[1] = system: SVG p12, GBM8401 and GBM8901; assay: MTT assay, normal cell versus tumor cells (categories 39-3 to 39-7); details: tumor cell survival rate less than 80%; for category 39-5: survival rate higher than 80% for normal cell SVG p12 and only inhibits growth of tumor cell GBM8901: FIG. 5C; for category 39-3: survival rate higher than 80% for normal cell SVG p12 and inhibits growth of both tumor cells GBM8401 and GBM8901: FIG. 5A
SVG p12 = assay: MTT assay, SVG p12 normal cell; details: for Cell survival rate (%) SVG p12: concentration 10 μM, normal cell
GBM8401 = assay: MTT assay, GBM8401 tumor cell; details: for Cell survival rate (%) GBM8401: concentration 10 μM, tumor cell; for inhibitory effect against tumor cell GBM8401: survival rate less than 80%

Row | SMILES | Cell survival rate (%) GBM8901 (GBM8901) | category 39-5: survival rate higher than 80% for normal cell SVG p12 and only inhibits growth of tumor cell GBM8901 [1] | Cell survival rate (%) SVG p12 (SVG p12) | Cell survival rate (%) GBM8401 (GBM8401) | category 39-3: survival rate higher than 80% for normal cell SVG p12 and inhibits growth of both tumor cells GBM8401 and GBM8901 [1] | category 39-4: survival rate higher than 80% for normal cell SVG p12 and only inhibits growth of tumor cell GBM8401 ([1]; FIG. 5B) | without cell toxicity for normal cell SVGP p12 (SVG p12; survival rate higher than 80%) | inhibitory effect against tumor cell GBM8401 (GBM8401) | inhibitory effect against tumor cell GBM8901 (GBM8901; survival rate less than 80%)
1 | CCCCSc1nc2ccc3c(c2[nH]1)C(=O)c1ccccc1C3=O [f1-3, 2-(Butylthio)-1H-anthra[1,2-d]imidazole-6,11-dione] | 10 ± 4% | in this category | 98 ± 7% | 78 ± 16% |  |  |  |  | 
2 | Cc1ccccc1CSc1nc2ccc3c(c2[nH]1)C(=O)c1ccccc1C3=O [f1-4, 2-(2-Methylbenzylthio)-1H-anthra[1,2-d]imidazole-6,11-dione] | 18 ± 8% |  | 58 ± 5% | 25 ± 10% |  |  |  |  | 
3 | COC(=O)CCCSc1nc2ccc3c(c2[nH]1)C(=O)c1ccccc1C3=O [f1-5, Methyl-(6,11-dioxo-6,11-dihydro-1H-anthra[1,2-d]imidazol-2-ylthio)butanoate] | 80 ± 2% |  | 92 ± 5% | 70 ± 10% |  |  |  |  | 
4 | COC(=O)/C=C/CSc1nc2ccc3c(c2[nH]1)C(=O)c1ccccc1C3=O [f1-6, (E)-methyl 4-(6,11-dioxo-6,11-dihydro-1H-anthra[1,2-d]imidazol-2-ylthio)but-2-enoate] | 44 ± 5% | in this category | 90 ± 6% | 82 ± 7% |  |  |  |  | 
5 | C#CCSc1nc2ccc3c(c2[nH]1)C(=O)c1ccccc1C3=O [f1-7, 2-(prop-2-ynylthio)-1H-anthra[1,2-d]imidazole-6,11-dione] | 7 ± 2% | in this category | 98 ± 2% | 38 ± 10% |  |  |  |  | 
6 | O=C1c2ccccc2C(=O)c2c1ccc1nc(SCCCCCl)[nH]c21 [f1-8, 2-(4-Chlorobutylthio)-1H-anthra[1,2-d]imidazole-6,11-dione] | 65 ± 10% |  | 66 ± 3% | 43 ± 10% |  |  |  |  | 
7 | O=C1c2ccccc2C(=O)c2c1ccc1nc(SCCCCCCCl)[nH]c21 [f1-10, 2-(6-Chlorohexylthio)-1H-anthra[1,2-d]imidazole-6,11-dione] | 60 ± 2% |  | 81 ± 1% | 78 ± 5% | in this category |  |  |  | 
8 | O=C1c2ccccc2C(=O)c2c1ccc1nc(SCCN3CCOCC3)[nH]c21 [f1-13, 2-(2-morpholinoethylthio)-1H-anthra[1,2-d]imidazole-6,11-dione] | 68 ± 2% |  | 62 ± 8% | 38 ± 9% |  |  |  |  | 
9 | O=C1c2ccccc2C(=O)c2c1ccc1nc(SCCCN3CCCCC3)[nH]c21 [f1-14, 2-(3-(piperidin-1-yl)propylthio)-1H-anthra[1,2-d]imidazole-6,11-dione] | 10 ± 2% |  | 12 ± 1% | 6 ± 10% |  |  |  |  | 
10 | O=C1c2ccccc2C(=O)c2c1ccc1nc(SCC(=O)N3CCOCC3)[nH]c21 [f1-16, 2-(2-morpholino-2-oxoethylthio)-1H-anthra[1,2-d]imidazole-6,11-dione] | 39 ± 2% |  | 60 ± 1% | 30 ± 9% |  |  |  |  | 
11 | O=C1c2ccccc2C(=O)c2c1ccc1nc(SCCC(=O)N3CCOCC3)[nH]c21 [f1-17, 2-(3-morpholino-3-oxopropylthio)-1H-anthra[1,2-d]imidazole-6,11-dione] | 48 ± 1% |  | 80 ± 0% | 23 ± 10% |  | in this category | without cell toxicity for normal cell SVGP p12 |  | 
12 | CCN(CC)C(=O)CCSc1nc2ccc3c(c2[nH]1)C(=O)c1ccccc1C3=O [f1-20, 3-(6,11-dioxo-6,11-dihydro-1H-anthra[1,2-d]imidazol-2-ylthio)-N,N-diethylpropanamide] | 30 ± 2% |  | 46 ± 2% | 28 ± 11% |  |  |  |  | 
13 | O=C1c2ccccc2C(=O)c2c1ccc1nc(SCCC(=O)N3CCCC3)[nH]c21 [f1-22, 2-(3-oxo-3-(pyrrolidin-1-yl)propylthio)-1H-anthra[1,2-d]imidazole-6,11-dione] | 28 ± 2% | in this category | 80 ± 3% | 40 ± 15% |  |  |  |  | 
14 | CCCN(CCC)C(=O)CSc1nc2ccc3c(c2[nH]1)C(=O)c1ccccc1C3=O [f1-23, 2-(6,11-dioxo-6,11-dihydro-1H-anthra[1,2-d]imidazol-2-ylthio)-N,N-dipropylacetamide] | 18 ± 0% | in this category | 80 ± 7% | 82 ± 15% |  |  |  |  | 
15 | O=C(CCc1ccccc1)Sc1nc2ccc3c(c2[nH]1)C(=O)c1ccccc1C3=O [f2-4, S-6,11-dioxo-6,11-dihydro-1H-anthra[1,2-d]imidazol-2-yl 3-phenylpropanethioate] | 72 ± 6% |  | 61 ± 2% | 62 ± 15% |  |  |  |  | 
16 | O=C(Sc1nc2ccc3c(c2[nH]1)C(=O)c1ccccc1C3=O)c1cc(C(F)(F)F)ccc1C(F)(F)F [f2-5, S-6,11-dioxo-6,11-dihydro-1H-anthra[1,2-d]imidazol-2-yl 2,5-bis(trifluoromethyl)benzothioate] | 68 ± 6% |  | 82 ± 1% | 40 ± 13% | in this category |  |  |  | 
17 | O=C1c2ccccc2C(=O)c2c1ccc1nc(SC(=O)N3CCCC3)[nH]c21 [f2-7, S-6,11-dioxo-6,11-dihydro-1H-anthra[1,2-d]imidazol-2-yl pyrrolidine-1-carbothioate] | 42 ± 7% |  | 62 ± 5% | 72 ± 18% |  |  |  | exhibited inhibitory effect against tumor cell GBM8401 | 
18 | O=C1c2ccccc2C(=O)c2c1ccc1nc(SC(=O)N3CCCCC3)[nH]c21 [f2-8, S-6,11-dioxo-6,11-dihydro-1H-anthra[1,2-d]imidazol-2-yl piperidine-1-carbothioate] | 100 ± 0% |  | 92 ± 3% | 99 ± 25% |  |  |  |  | 
19 | CCN(CC)C(=O)Sc1nc2ccc3c(c2[nH]1)C(=O)c1ccccc1C3=O [f2-9, S-6,11-dioxo-6,11-dihydro-1H-anthra[1,2-d]imidazol-2-yl diethylcarbamothioate] | 50 ± 0% |  | 90 ± 8% | 46 ± 13% | in this category |  |  | exhibited inhibitory effect against tumor cell GBM8401 | exhibited inhibitory effect against tumor cell GBM8901
